One data set is described as follows: log P. The format is physicochemical.
[1] abbreviates: stated in text after the preparation example.
Where [2] appears, read: Table 1, benzofuranyl alkanoates prepared analogously to Example 3.
Setting [3] is: table of benzofuranone oximes prepared analogously to Example 2.

One may read the logP as the decadic logarithm of the partition coefficient of the neutral form, usually between octanol and water. Low values mean lower lipophilicity, high ones higher lipophilicity. As to `CO/N=C1\COc2ccccc21` [Example 1, O-methyl benzofuran oxime], the lipophilicity (logP) in “log P” (setting [1]) worked out at 2.38.
The same measure, in the same setting: the value for `O/N=C1\COc2ccccc21` [Example 2] was 1.44.
As a reminder, the melting point is the temperature of the solid-liquid transition. As for `CC(=O)Oc1coc2cc(C(F)(F)F)ccc12` [Example 6], the melting point was 27 °C. The same compound came in with a log partition coefficient (logP) in “log P” (setting [2]) of 3.38.
`CC(=O)Oc1coc2cc(C)ccc12` [Example 7] yielded a melting point of 32 to 36 °C. In “log P” (setting [2]), this compound returned a log partition coefficient (logP) of 3.09.
In turn, `COc1ccc2c(OC(C)=O)coc2c1` [Example 8] yielded a log partition coefficient (logP) in the data set “log P” (setting [2]) of 2.65.
Consider `O/N=C1\COc2cc(C(F)(F)F)ccc21` [Example 11], for which the melting point was 150 °C (dec.). In “log P” (setting [3]), this compound had a log partition coefficient (logP) of 2.38.
`Cc1ccc2c(c1)OC/C2=N\O` [Example 12] came in with a lipophilicity (logP) in “log P” (setting [3]) of 1.79.
The same measure, in the same setting: the value for `COc1ccc2c(c1)OC/C2=N\O` [Example 13] was 1.52.

Source of the values: US6603025B1, “Method of production of benzofuranone oximes” (Bayer Aktiengesellschaft, priority 1999, dated 2003).
